Assay results reported in patent publication US8143288B2, “Inhibitors of HCV replication” (priority 2005, dated 2012).

tested on: HCV 1b-377-neo replicon cells; experiment: HCV replicon FRET assay; type: cell-based; details: Hepatitis C virus; HCV replicon; read-out: Activity (EC50)

Compared with `Nc1ccc(/C=C/c2ccc(NC(=O)[C@@H]3CCCN3C(=O)Cc3ccccc3)cc2)cc1` [Example 250A], `O=C(Nc1ccc(/C=C/c2ccc(NC(=O)[C@@H]3CCCN3C(=O)Cc3ccccc3)cc2)cc1)C1CC1` [Example 292] is lower in EC50: 1000 to 10000 nM for the first, 100 to 1000 nM for the second. The second is the more potent here.

`O=C(Nc1ccc(/C=C/c2ccc(NS(=O)(=O)Cc3ccccc3)cc2)cc1)[C@@H]1CCCN1C(=O)Cc1ccccc1` [Example 250B] and `O=C(Cc1ccccc1)Nc1ccc(/C=C/c2ccc(NC(=O)[C@@H]3CCCN3C(=O)Cc3ccccc3)cc2)cc1` [Example 254] fall in the same range of EC50: 100 to 1000 nM for the first, 100 to 1000 nM for the second.

First: O=C(NCc1ccccc1)Nc1ccc(/C=C/c2ccc(NC(=O)[C@@H]3CCCN3C(=O)Cc3ccccc3)cc2)cc1 [Example 250C]
Second: O=C(Nc1ccc(/C=C/c2ccc(NC(=O)[C@@H]3CCCN3C(=O)Cc3ccccc3)cc2)cc1)c1ccccc1 [Example 264]
The EC50 of the first is higher: 1000 to 10000 nM for the first, 0.1 to 90 nM for the second. The second is the more potent here.

`CC(=O)N1CCCC1C(=O)Nc1ccc(/C=C/c2ccc(NC(=O)[C@@H]3CCCN3C(=O)Cc3ccccc3)cc2)cc1` (some centres unmarked) [Example 251] and `CC(=O)N1CCC[C@H]1C(=O)Nc1ccc(/C=C/c2ccc(NC(=O)[C@@H]3CCCN3C(=O)Cc3ccccc3)cc2)cc1` [Example 258] fall in the same range of EC50: 0.1 to 90 nM for the first, 0.1 to 90 nM for the second.

First: O=C(Nc1ccc(/C=C/c2ccc(NC(=O)[C@@H]3CCCN3C(=O)Cc3ccccc3)cc2)cc1)[C@@H]1CCCN1 [Example 252]
Second: O=C(Nc1ccc(/C=C/c2ccc(NC(=O)[C@@H]3CCCN3C(=O)OCc3ccccc3)cc2)cc1)C1CC1 [Example 293]
The EC50 of the first is higher: 1000 to 10000 nM for the first, 100 to 1000 nM for the second.

`O=C(Nc1ccc(/C=C/c2ccc(NC(=O)[C@@H]3CCCN3C(=O)Cc3ccccc3)cc2)cc1)[C@H]1CCCN1C(=O)Cc1ccccc1` [Example 255] and `O=C(Cc1ccccc1)NCC(=O)Nc1ccc(/C=C/c2ccc(NC(=O)[C@@H]3CCCN3C(=O)Cc3ccccc3)cc2)cc1` [Example 257] fall in the same range of EC50: 100 to 1000 nM for the first, 100 to 1000 nM for the second.

First: CC(=O)N[C@@H](C)C(=O)Nc1ccc(/C=C/c2ccc(NC(=O)[C@@H]3CCCN3C(=O)Cc3ccccc3)cc2)cc1 [Example 256]
Second: C[C@H](NC(=O)Cc1ccccc1)C(=O)Nc1ccc(/C=C/c2ccc(NC(=O)[C@@H]3CCCN3C(=O)Cc3ccccc3)cc2)cc1 [Example 271]
The EC50 of the first is higher: 100 to 1000 nM for the first, 0.1 to 90 nM for the second. The second is the more potent here.

First: CC(C)(C)O[C@@H]1C[C@@H](C(=O)Nc2ccc(/C=C/c3ccc(NC(=O)C4CC4)cc3)cc2)N(C(=O)OCc2ccccc2)C1 [Example 259]
Second: CC(C)(C)O[C@@H]1C[C@@H](C(=O)Nc2ccc(/C=C/c3ccc(NC(=O)[C@@H]4CCCN4C(=O)Cc4ccccc4)cc3)cc2)N(C(=O)OCc2ccccc2)C1 [Example 274]
The EC50 of the first is higher: 100 to 1000 nM for the first, 0.1 to 90 nM for the second.

`O=C(Nc1ccc(/C=C/c2ccc(NC(=O)[C@@H]3CCCN3C(=O)[C@H]3CCCO3)cc2)cc1)C1CC1` [Example 260] and `O=C(Nc1ccc(/C=C/c2ccc(NC(=O)[C@@H]3CCCN3C(=O)[C@H]3CCCO3)cc2)cc1)C1CCC1` [Example 262] fall in the same range of EC50: 100 to 1000 nM for the first, 100 to 1000 nM for the second.

`O=C(CC1CC1)Nc1ccc(/C=C/c2ccc(NC(=O)[C@@H]3CCCN3C(=O)[C@H]3CCCO3)cc2)cc1` [Example 261] and `O=C(Nc1ccc(/C=C/c2ccc(NC(=O)[C@@H]3CCCN3C(=O)[C@H]3CCCO3)cc2)cc1)[C@H]1CCCO1` [Example 263] fall in the same range of EC50: 1000 to 10000 nM for the first, 1000 to 10000 nM for the second.

First: CCc1ccccc1C(=O)Nc1ccc(/C=C/c2ccc(NC(=O)[C@@H]3CCCN3C(=O)Cc3ccccc3)cc2)cc1 [Example 265]
Second: O=C(Nc1ccc(/C=C/c2ccc(NC(=O)[C@@H]3CCCN3C(=O)Cc3ccccc3)cc2)cc1)c1ccccc1Oc1ccccc1 [Example 266]
The EC50 of the first is lower: 100 to 1000 nM for the first, 1000 to 10000 nM for the second. The first is the more potent here.

Compared with `O=C(Nc1ccc(/C=C/c2ccc(NC(=O)[C@@H]3CCCN3C(=O)Cc3ccccc3)cc2)cc1)c1ccccc1NCc1ccccc1` [Example 267], `O=C(Nc1ccc(/C=C/c2ccc(NC(=O)[C@@H]3CCCN3C(=O)Cc3ccccc3)cc2)cc1)c1ccccc1OCc1ccccc1` [Example 268] is higher in EC50: 100 to 1000 nM for the first, 1000 to 10000 nM for the second. The first is the more potent here.

First: O=C(Cc1cccnc1)Nc1ccc(/C=C/c2ccc(NC(=O)[C@@H]3CCCN3C(=O)Cc3cccnc3)cc2)cc1 [Example 270]
Second: CC(=O)N1C[C@H](O)C[C@H]1C(=O)Nc1ccc(/C=C/c2ccc(NC(=O)[C@@H]3CCCN3C(=O)Cc3ccccc3)cc2)cc1 [Example 272]
The EC50 of the first is lower: 0.1 to 90 nM for the first, 100 to 1000 nM for the second. The first is the more potent here.

First: NCCCCC(N)C(=O)N1CCC[C@H]1C(=O)Nc1ccc(/C=C/c2ccc(NC(=O)[C@@H]3CCCN3C(=O)Cc3ccccc3)cc2)cc1 (some centres unmarked) [Example 273]
Second: O=C(Nc1ccc(/C=C/c2ccc(NC(=O)[C@@H]3C[C@@H](O)CN3C(=O)OCc3ccccc3)cc2)cc1)[C@@H]1CCCN1C(=O)Cc1ccccc1 [Example 275]
The EC50 of the first is higher: 1000 to 10000 nM for the first, 0.1 to 90 nM for the second. The second is the more potent here.

`O=C(Nc1ccc(/C=C/c2ccc(NC(=O)[C@@H]3CCCN3C(=O)Cc3ccccc3)c(F)c2)cc1F)[C@@H]1CCCN1C(=O)Cc1ccccc1` [Example 276] and `Cc1cc(/C=C/c2ccc(NC(=O)[C@@H]3CCCN3C(=O)Cc3ccccc3)c(C)c2)ccc1NC(=O)[C@@H]1CCCN1C(=O)Cc1ccccc1` [Example 277] fall in the same range of EC50: 0.1 to 90 nM for the first, 0.1 to 90 nM for the second.

`CCc1cc(Br)ccc1S(=O)(=O)N1CCC[C@H]1C(=O)Nc1ccc(/C=C/c2ccc(NC(=O)[C@@H]3CCCN3S(=O)(=O)c3ccc(Br)cc3CC)cc2)cc1` [Example 278] and `Cc1ccccc1S(=O)(=O)N1CCC[C@H]1C(=O)Nc1ccc(/C=C/c2ccc(NC(=O)[C@@H]3CCCN3S(=O)(=O)c3ccccc3C)cc2)cc1` [Example 282] fall in the same range of EC50: 1000 to 10000 nM for the first, 1000 to 10000 nM for the second.

Compared with `Cc1cc(C)c(S(=O)(=O)N2CCC[C@H]2C(=O)Nc2ccc(/C=C/c3ccc(NC(=O)[C@@H]4CCCN4S(=O)(=O)c4c(C)cc(C)cc4C)cc3)cc2)c(C)c1` [Example 279], `O=C(Nc1ccc(/C=C/c2ccc(NC(=O)[C@@H]3CCCN3S(=O)(=O)c3ccccc3OC(F)(F)F)cc2)cc1)[C@@H]1CCCN1S(=O)(=O)c1ccccc1OC(F)(F)F` [Example 280] is higher in EC50: 100 to 1000 nM for the first, 1000 to 10000 nM for the second. The first is the more potent here.

Compared with `O=C(Nc1ccc(/C=C/c2ccc(NC(=O)[C@@H]3CCCN3S(=O)(=O)Cc3cccc(C(F)(F)F)c3)cc2)cc1)[C@@H]1CCCN1S(=O)(=O)Cc1cccc(C(F)(F)F)c1` [Example 283], `C[C@@](O)(C(=O)N1CCC[C@H]1C(=O)Nc1ccc(/C=C/c2ccc(NC(=O)[C@@H]3CCCN3C(=O)[C@@](C)(O)c3ccccc3)cc2)cc1)c1ccccc1` [Example 299] is lower in EC50: 1000 to 10000 nM for the first, 0.1 to 90 nM for the second.

`CC(C)N(C(=O)N1CCCC1C(=O)Nc1ccc(/C=C/c2ccc(NC(=O)C3CCCN3C(=O)N(C(C)C)C(C)C)cc2)cc1)C(C)C` (centres unmarked) [Example 284] and `CC(C)N(C(=O)N1CCC[C@H]1C(=O)Nc1ccc(/C=C/c2ccc(NC(=O)[C@@H]3CCCN3C(=O)N(C(C)C)C(C)C)cc2)cc1)C(C)C` [Example 290] fall in the same range of EC50: 0.1 to 90 nM for the first, 0.1 to 90 nM for the second.

`CC(C)NC(=O)N1CCC[C@H]1C(=O)Nc1ccc(/C=C/c2ccc(NC(=O)[C@@H]3CCCN3C(=O)NC(C)C)cc2)cc1` [Example 285] and `CN(C)C(=O)N1CCC[C@H]1C(=O)Nc1ccc(/C=C/c2ccc(NC(=O)[C@@H]3CCCN3C(=O)N(C)C)cc2)cc1` [Example 288] fall in the same range of EC50: 100 to 1000 nM for the first, 100 to 1000 nM for the second.

First: O=C(Nc1ccc(/C=C/c2ccc(NC(=O)[C@@H]3CCCN3C(=O)N3CCCC3)cc2)cc1)[C@@H]1CCCN1C(=O)N1CCCC1 [Example 286]
Second: O=C(Nc1ccc(/C=C/c2ccc(NC(=O)[C@@H]3CCCN3C(=O)N3CCOCC3)cc2)cc1)[C@@H]1CCCN1C(=O)N1CCOCC1 [Example 287]
The EC50 of the first is higher: 100 to 1000 nM for the first, 0.1 to 90 nM for the second. The second is the more potent here.

`CCN(CC)C(=O)N1CCC[C@H]1C(=O)Nc1ccc(/C=C/c2ccc(NC(=O)[C@@H]3CCCN3C(=O)N(CC)CC)cc2)cc1` [Example 289] and `CN(C)[C@@H](C(=O)N1CCC[C@H]1C(=O)Nc1ccc(/C=C/c2ccc(NC(=O)[C@@H]3CCCN3C(=O)[C@@H](c3ccccc3)N(C)C)cc2)cc1)c1ccccc1` [Example 296] fall in the same range of EC50: 0.1 to 90 nM for the first, 0.1 to 90 nM for the second.

First: O=C(Cc1ccccc1)C1C[C@H](O)C[C@H]1C(=O)Nc1ccc(/C=C/c2ccc(NC(=O)[C@@H]3C[C@@H](O)CN3C(=O)Cc3ccccc3)cc2)cc1 (some centres unmarked) [Example 291]
Second: CC(C)(C)O[C@@H]1C[C@@H](C(=O)Nc2ccc(/C=C/c3ccc(NC(=O)[C@@H]4C[C@@H](OC(C)(C)C)CN4C(=O)Cc4ccccc4)cc3)cc2)N(C(=O)Cc2ccccc2)C1 [Example 295]
The EC50 of the first is lower: 0.1 to 90 nM for the first, 1000 to 10000 nM for the second. The first is the more potent here.

First: CC(C)(C)O[C@@H]1C[C@@H](C(=O)Nc2ccc(/C=C/c3ccc(NC(=O)[C@@H]4C[C@@H](OC(C)(C)C)CN4C(=O)OCc4ccccc4)cc3)cc2)N(C(=O)OCc2ccccc2)C1 [Example 294]
Second: O=C(Nc1ccc(/C=C/c2ccc(NC(=O)[C@@H]3CCCN3C(=O)[C@H](O)c3ccccc3)cc2)cc1)[C@@H]1CCCN1C(=O)[C@H](O)c1ccccc1 [Example 298]
The EC50 of the first is higher: 100 to 1000 nM for the first, 0.1 to 90 nM for the second. The second is the more potent here.

`CN(C)c1cc(C(=O)N2CCC[C@H]2C(=O)Nc2ccc(/C=C/c3ccc(NC(=O)[C@@H]4CCCN4C(=O)c4cc(N(C)C)c5ccccc5n4)cc3)cc2)nc2ccccc12` [Example 297] and `O=C(Nc1ccc(/C=C/c2ccc(NC(=O)[C@@H]3CCCN3C(=O)c3nccc4ccccc34)cc2)cc1)[C@@H]1CCCN1C(=O)c1nccc2ccccc12` [Example 300] fall in the same range of EC50: 0.1 to 90 nM for the first, 0.1 to 90 nM for the second.
